Values quoted from earlier work as cited in patent publication US6849609B2, “Method and composition for controlled release acarbose formulations” (priority 2001, dated 2005).

System: patients

hypoglycemia (acarbose alone, even when administered to patients in a fasted state): has not been shown to cause hypoglycemia
Structure (SMILES): C[C@H]1O[C@H](O[C@H]2[C@H](O)[C@@H](O)[C@@H](O[C@H]3[C@H](O)[C@@H](O)C(O)O[C@@H]3CO)O[C@@H]2CO)[C@H](O)[C@@H](O)[C@@H]1N[C@H]1C=C(CO)[C@@H](O)[C@H](O)[C@H]1O (some centres unmarked) [Acarbose]
most common adverse events (patients taking acarbose, shown to abate with time): flatulence, diarrhea and abdominal discomfort
